Source: patent publication US11939314B2, “Quinolin-2-one derivatives” (MERCK PATENT GMBH, priority 2016, dated 2024)

Assays:
PDGFRalpha(V561D) = biological target: T1, PDGFRalpha(V561D) (Homo sapiens, UniProt P16234, V561D); assay: PDGFRalpha(V561D) assay; assay type: biochemical; conditions: recombinant human PDGFRalpha aa 550-end, 200 μM ATP, 1.4E-06 means 1.4×10^−6, read-out: Inhibition (IC50) of PDGFRα (V561D)
T1 construct: recombinant human PDGFRalpha, amino acids 550end containing the V561 D mutation; 6His (N)
T1 sequence (P16234 550-1089 V561D): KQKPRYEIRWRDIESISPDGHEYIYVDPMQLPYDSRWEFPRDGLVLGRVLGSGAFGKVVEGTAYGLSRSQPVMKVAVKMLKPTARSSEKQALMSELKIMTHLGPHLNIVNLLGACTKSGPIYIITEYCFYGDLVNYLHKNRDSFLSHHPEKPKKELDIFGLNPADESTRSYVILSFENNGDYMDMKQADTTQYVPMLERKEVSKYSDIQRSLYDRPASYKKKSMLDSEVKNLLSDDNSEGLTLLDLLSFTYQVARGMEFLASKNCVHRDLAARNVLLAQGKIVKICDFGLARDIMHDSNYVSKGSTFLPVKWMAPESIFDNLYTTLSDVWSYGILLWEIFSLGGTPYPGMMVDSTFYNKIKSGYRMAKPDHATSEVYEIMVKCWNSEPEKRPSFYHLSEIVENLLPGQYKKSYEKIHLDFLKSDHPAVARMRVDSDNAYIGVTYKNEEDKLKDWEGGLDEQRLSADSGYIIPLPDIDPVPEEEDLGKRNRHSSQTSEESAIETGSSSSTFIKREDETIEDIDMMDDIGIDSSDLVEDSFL
Procedure, shortened: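 Radiometric filter-binding assay: substrate phosphorylation by recombinant N-His-tagged human PDGFRα 550-end V561D was quenched with 3% phosphoric acid after 40 min at room temperature, then counted.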

c-Kit(V654A) = biological target: T2, c-Kit(V654A) (Homo sapiens, UniProt P10721, V654A); assay: c-Kit(V654A) assay; assay type: biochemical; conditions: recombinant human c-Kit aa 544-end, 200 μM ATP, 1.4E-06 means 1.4×10^−6, read-out: Inhibition (IC50) of c-KIT (V654A)
T2 construct: amino acids 544-end containing the V654A mutation; GST (N)
T2 sequence (P10721 544-976 V654A): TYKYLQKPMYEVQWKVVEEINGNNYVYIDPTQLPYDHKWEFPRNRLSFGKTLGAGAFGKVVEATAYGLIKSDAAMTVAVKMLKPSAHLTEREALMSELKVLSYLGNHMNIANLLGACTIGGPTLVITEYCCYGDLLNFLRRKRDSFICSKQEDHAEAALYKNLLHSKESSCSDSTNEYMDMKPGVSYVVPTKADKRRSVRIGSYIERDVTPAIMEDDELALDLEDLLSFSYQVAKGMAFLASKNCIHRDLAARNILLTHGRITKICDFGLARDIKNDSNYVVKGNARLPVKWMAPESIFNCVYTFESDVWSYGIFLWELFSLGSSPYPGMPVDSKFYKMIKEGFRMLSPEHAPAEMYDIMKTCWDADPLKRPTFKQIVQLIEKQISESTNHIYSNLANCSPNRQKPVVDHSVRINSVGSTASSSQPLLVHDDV
Procedure, shortened: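 Radiometric filter-binding read-out: substrate 33P incorporation counted by scintillation after P30 filtermat washes in 75 mM phosphoric acid and methanol. Enzyme: N-GST recombinant human c-Kit aa 544-end carrying V654A.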

IC50 (PDGFRalpha(V561D))	IC50 (c-Kit(V654A))	Compound
580 nM	190 nM	O=C(c1ccc(-n2cc(-c3cc4cc(F)c(F)cc4[nH]c3=O)nn2)cc1)N1CCC(OCCN2CCCC2)C1 (centres unmarked) [A225, 6,7-difluoro-3-(1-{4-[3-(2-pyrrolidin-1-yl-ethoxy)-pyrrolidine-1-carbonyl]-phenyl}-1H-[1,2,3]triazol-4-yl)-1H-quinolin-2-one]
89 nM	55 nM	NC(=O)[C@@H]1CCN(C(=O)c2ccc(-n3cc(-c4cc5cc(F)ccc5[nH]c4=O)nn3)cc2)C1 [A226, (R)-1-{4-[4-(6-fluoro-2-oxo-1,2-dihydro-quinolin-3-yl)-[1,2,3]triazol-1-yl]-benzoyl}-pyrrolidine-3-carboxylic acid amide]
150 nM	41 nM	O=C(c1ccc(-n2cc(-c3cc4cc(F)ccc4[nH]c3=O)nn2)cc1)N1CCC2(CC1)COC2 [A229, 6-fluoro-3-{1-[4-(2-oxa-7-aza-spiro[3.5]nonane-7-carbonyl)-phenyl]-1H-[1,2,3]triazol-4-yl}-1H-quinolin-2-one]
95 nM	49 nM	O=C(c1ccc(-n2cc(-c3cc4cc(F)ccc4[nH]c3=O)nn2)cc1)N1CCN(C2COC2)CC1 [A230, 6-fluoro-3-{1-[4-(4-oxetan-3-yl-piperazine-1-carbonyl)-phenyl]-1H-[1,2,3]triazol-4-yl}-1H-quinolin-2-one]
340 nM	90 nM	O=C(c1ccc(-n2cc(-c3cc4cc(F)ccc4[nH]c3=O)nn2)cc1)N1CCOC2(COC2)C1 [A231, 3-{1-[4-(2,5-dioxa-8-aza-spiro[3.5]nonane-8-carbonyl)-phenyl]-1H-[1,2,3]triazol-4-yl}-6-fluoro-1H-quinolin-2-one]
980 nM	160 nM	O=C(NC1COC1)c1ccc(-n2cc(-c3cc4cc(F)ccc4[nH]c3=O)nn2)cc1 [A232, 4-[4-(6-fluoro-2-oxo-1,2-dihydro-quinolin-3-yl)-[1,2,3]triazol-1-yl]-N-oxetan-3-yl-benzamide]
600 nM	96 nM	COCCOC[C@H]1CCN(C(=O)c2ccc(-n3cc(-c4cc5cc(F)c(F)cc5[nH]c4=O)nn3)cc2)C1 [A233, 6,7-difluoro-3-(1-{4-[(S)-3-(2-methoxy-ethoxymethyl)-pyrrolidine-1-carbonyl]-phenyl}-1H-[1,2,3]triazol-4-yl)-1H-quinolin-2-one]
740 nM	50 nM	O=C(c1ccc(-n2cc(-c3cc4cc(F)ccc4[nH]c3=O)nn2)cc1)N1CCCC12COC2 [A234, 6-fluoro-3-{1-[4-(2-oxa-5-aza-spiro[3.4]octane-5-carbonyl)-phenyl]-1H-[1,2,3]triazol-4-yl}-1H-quinolin-2-one]
140 nM	42 nM	O=C(c1ccc(-n2cc(-c3cc4cc(F)ccc4[nH]c3=O)nn2)cc1)N1CC2(COC2)C1 [A235, 6-fluoro-3-{1-[4-(2-oxa-6-aza-spiro[3.3]heptane-6-carbonyl)-phenyl]-1H-[1,2,3]triazol-4-yl}-1H-quinolin-2-one]
560 nM	53 nM	COCCOC[C@H]1CCN(C(=O)c2ccc(-n3cc(-c4cc5cc(F)ccc5[nH]c4=O)nn3)cc2)C1 [A236, 6-fluoro-3-(1-{4-[(S)-3-(2-methoxy-ethoxymethyl)-pyrrolidine-1-carbonyl]-phenyl}-1H-[1,2,3]triazol-4-yl)-1H-quinolin-2-one]
17 nM	11 nM	NC(=O)[C@@H]1CCCN1C(=O)c1ccc(-n2cc(-c3cc4cc(F)ccc4[nH]c3=O)nn2)cc1 [A242, (S)-1-{4-[4-(6-fluoro-2-oxo-1,2-dihydro-quinolin-3-yl)-[1,2,3]triazol-1-yl]-benzoyl}-pyrrolidine-2-carboxylic acid amide]
13 nM	36 nM	CO[C@@H]1C[C@H](CO)N(C(=O)c2ccc(-n3cc(-c4cc5cc(F)ccc5[nH]c4=O)nn3)cc2)C1 [A244, 6-fluoro-3-{1-[4-((2R,4R)-2-hydroxymethyl-4-methoxy-pyrrolidine-1-carbonyl)-phenyl]-1H-[1,2,3]triazol-4-yl}-1H-quinolin-2-one]

Further lines, the compound ahead of its results:

Compound	IC50 (PDGFRalpha(V561D))	IC50 (c-Kit(V654A))
COCCOC[C@@H]1CCN(C(=O)c2ccc(-n3cc(-c4cc5cc(F)c(F)cc5[nH]c4=O)nn3)cc2)C1 [A223, 6,7-difluoro-3-(1-{4-[(R)-3-(2-methoxy-ethoxymethyl)-pyrrolidine-1-carbonyl]-phenyl}-1H-[1,2,3]triazol-4-yl)-1H-quinolin-2-one]	410 nM	350 nM
O=C(c1ccc(-n2cc(-c3cc4cc(F)ccc4[nH]c3=O)nn2)cc1)N1CCC(OCCN2CCCC2)C1 (centres unmarked) [A224, 6-fluoro-3-(1-{4-[3-(2-pyrrolidin-1-yl-ethoxy)-pyrrolidine-1-carbonyl]-phenyl}-1H-[1,2,3]triazol-4-yl)-1H-quinolin-2-one]	280 nM	70 nM
O=C(c1ccc(-n2cc(-c3cc4cc(F)ccc4[nH]c3=O)nn2)cc1)N1C[C@H](O)C[C@H]1CO [A227, 6-fluoro-3-{1-[4-((2S,4R)-4-hydroxy-2-hydroxymethyl-pyrrolidine-1-carbonyl)-phenyl]-1H-[1,2,3]triazol-4-yl}-1H-quinolin-2-one]	140 nM	92 nM
O=C(c1ccc(-n2cc(-c3cc4cc(F)ccc4[nH]c3=O)nn2)cc1)N1CCCC2(COC2)C1 [A228, 6-fluoro-3-{1-[4-(2-oxa-6-aza-spiro[3.5]nonane-6-carbonyl)-phenyl]-1H-[1,2,3]triazol-4-yl}-1H-quinolin-2-one]	300 nM	74 nM
CO[C@H]1CN(C(=O)c2ccc(-n3cc(-c4cc5cc(F)ccc5[nH]c4=O)nn3)cc2)C[C@H]1OC [A237, 3-{1-[4-((3R,4S)-3,4-dimethoxy-pyrrolidine-1-carbonyl)-phenyl]-1H-[1,2,3]triazol-4-yl}-6-fluoro-1H-quinolin-2-one]	490 nM	81 nM
COCCN(CCOC)C(=O)c1ccc(-n2cc(-c3cc4cc(F)ccc4[nH]c3=O)nn2)cc1 [A238, 4-[4-(6-fluoro-2-oxo-1,2-dihydro-quinolin-3-yl)-[1,2,3]triazol-1-yl]-N,N-bis-(2-methoxy-ethyl)-benzamide]	620 nM	79 nM
CCN(CC)CC1CCN(C(=O)c2ccc(-n3cc(-c4cc5cc(F)c(F)cc5[nH]c4=O)nn3)cc2)C1 (centres unmarked) [A239, 3-{1-[4-(3-diethylaminomethyl-pyrrolidine-1-carbonyl)-phenyl]-1H-[1,2,3]triazol-4-yl}-6,7-difluoro-1H-quinolin-2-one]	1200 nM	330 nM
CC(=O)N1C[C@@H]2[C@H](C1)[C@H]2NC(=O)c1ccc(-n2cc(-c3cc4cc(F)ccc4[nH]c3=O)nn2)cc1 [A240, N-(3-acetyl-3-aza-bicyclo[3.1.0]hex-6-yl)-4-[4-(6-fluoro-2-oxo-1,2-dihydro-quinolin-3-yl)-[1,2,3]triazol-1-yl]-benzamide]	250 nM	130 nM
CO[C@@H]1C[C@@H](CO)N(C(=O)c2ccc(-n3cc(-c4cc5cc(F)ccc5[nH]c4=O)nn3)cc2)C1 [A241, 6-fluoro-3-{1-[4-((2S,4R)-2-hydroxymethyl-4-methoxy-pyrrolidine-1-carbonyl)-phenyl]-1H-[1,2,3]triazol-4-yl}-1H-quinolin-2-one]	290 nM	100 nM
NC(=O)[C@H]1CCN(C(=O)c2ccc(-n3cc(-c4cc5cc(F)ccc5[nH]c4=O)nn3)cc2)C1 [A243, (S)-1-{4-[4-(6-fluoro-2-oxo-1,2-dihydro-quinolin-3-yl)-[1,2,3]triazol-1-yl]-benzoyl}-pyrrolidine-3-carboxylic acid amide]	14 nM	30 nM
